Source: patent US5066817A, “DC115A compounds produced by streptomyces sp” (Kyowa Hakko Kogyo Co., Ltd., priority 1989, dated 1991)
Values after ≈ are worked out from the molar mass of the structure shown.

What was measured:
[1] = test system: Bacillus subtilis No. 10707; test: Antibacterial activity, agar dilution method (pH 7.0); format: cell-based; settings: read-out: Minimum Inhibitory Concentration
Description: (§1) The minimum inhibitory concentration (MIC) against various bacteria was determined by the agar dilution method (pH 7.0).

[2] = test system: Escherichia coli ATCC 26; test: as above; format: cell-based; settings: ATCC26, read-out: Minimum Inhibitory Concentration
Description: as §1

[3] = test system: Klebsiella pneumoniae ATCC 10031; test: as above; format: cell-based; settings: ATCC10031, read-out: Minimum Inhibitory Concentration
Description: as §1

[4] = test system: Salmonella typhi ATCC 9992; test: as above; format: cell-based; settings: Salmonella enterica, pH 7, read-out: Minimum Inhibitory Concentration
Description: as §1

[5] = test system: Staphylococcus aureus ATCC 6538P; test: as above; format: cell-based; settings: ATCC6538P, read-out: Minimum Inhibitory Concentration
Description: as §1

[6] = test system: T24 cells; test: Growth inhibition against T24 cells (Neutral Red staining); format: cell-based; settings: Homo sapiens, T-24, 72 hours
Description: (§2) A T24 cell suspension ([…]) prepared by suspending T24 cells in a medium comprising F10 medium (GIBCO Co., Ltd.), […] fetal calf serum, 100 units/ml penicillin and 100 μg/ml streptomycin (hereinafter referred to as medium A) was put into wells of a 96-well microtiter plate in an amount of 0.1 ml per well. After incubation at 37° C. for 20 hours in a […], 0.05 ml of a sample appropriately diluted with medium A was added to each well. The cells were further cultured at 37° C. for 72 hours in the CO2 -incubator and the culture supernatant was removed. To the residue was added a medium comprising medium A and 0.02% Neutral Red in an amount of 0.1 ml per well, followed by culturing at 37° C. for one hour in the CO2 -incubator, whereby the cells were stained. After the culture supernatant was removed, the residue was washed once with physiological saline.
(§3) Then, the pigment was extracted with 0.001N hydrochloric acid/30% ethanol and absorbance at 550 nm was measured with a microplate reader. By comparing the absorbance of intact cells with those of the cells treated with a test compound at known concentrations, the concentration of the test compound at which the growth of the cells is inhibited by 50% (IC50) was determined.

[7] = test system: HeLaS3 cells; test: Growth inhibition against HeLaS3 cells; format: cell-based; settings: Homo sapiens, HeLa S3, 72 hours
Description: as §2, §3
(§4) IC50 was determined in the same manner as in the case of T24 cells except that a suspension of HeLaS3 cells (3×10^4 cells/ml) prepared by suspending HeLaS3 cell medium comprising MEM medium (Nissui Pharmaceutical Co., Ltd.) and 2 mM glutamine was used.

[8] = test system: tumor cells; test: Growth inhibition of tumor cells, overall result of (B) and (C); format: cell-based; settings: from the results of (B) and (C)
Description: as §2, §3, §4

[9] = Solubility; format: physicochemical
[10] = chloroform, dimethylsulfoxide, methanol, ethyl acetate and acetone

CC=CC1OC1(C)c1cc(=O)c2c(CC(=O)O)cc3cc4c(c(O)c3c2o1)C(=O)CCC4OC(C)=O (stereo not drawn) [DC115A3]
MIC [1]: 1.3 µg/mL (≈ 2.64 µM)
MIC [2]: 21 µg/mL (≈ 42.6 µM)
MIC [3]: 5.2 µg/mL (≈ 10.6 µM)
MIC [4]: 83 µg/mL (≈ 169 µM)
MIC [5]: 0.3 µg/mL (≈ 0.609 µM)
IC50 [6]: 0.14 µg/mL (≈ 0.284 µM)
IC50 [7]: 0.42 µg/mL (≈ 0.853 µM)
inhibition of growth of tumor cells [8]: inhibit the growth of tumor cells
Solubility [9, 10]: Soluble
Solubility ([9]; water and n-hexane): sparingly soluble

CCCC1OC1(C)c1cc(=O)c2c(CC(=O)O)cc3cc4c(c(O)c3c2o1)C(=O)CCC4OC(C)=O (stereo not drawn) [DC115A1]
MIC [1]: 10 µg/mL (≈ 20.2 µM)
MIC [2]: > 100 µg/mL
MIC [3]: > 100 µg/mL
MIC [4]: > 100 µg/mL
MIC [5]: 5.2 µg/mL (≈ 10.5 µM)
IC50 [6]: 0.17 µg/mL (≈ 0.344 µM)
IC50 [7]: 0.22 µg/mL (≈ 0.445 µM)
inhibition of growth of tumor cells [8]: inhibit the growth of tumor cells
Solubility [9, 10]: Soluble
Solubility ([9]; water and n-hexane): sparingly soluble

CCC1OC1(C)c1cc(=O)c2c(CC(=O)O)cc3cc4c(c(O)c3c2o1)C(=O)CCC4OC(C)=O (stereo not drawn) [DC115A2]
MIC [1]: 10 µg/mL (≈ 20.8 µM)
MIC [2]: 83 µg/mL (≈ 173 µM)
MIC [3]: 10 µg/mL (≈ 20.8 µM)
MIC [4]: > 100 µg/mL
MIC [5]: 2.6 µg/mL (≈ 5.41 µM)
IC50 [6]: 0.11 µg/mL (≈ 0.229 µM)
IC50 [7]: 0.19 µg/mL (≈ 0.395 µM)
inhibition of growth of tumor cells [8]: inhibit the growth of tumor cells
Solubility [9, 10]: Soluble
Solubility ([9]; water and n-hexane): sparingly soluble
